From US20260034123A1 (Cedilla Therapeutics, Inc., priority 2022, published 2026)
pIC50: −log10 of the molar value. Where “and” joins values, the source holds several entries; their conditions need not be identical. Equal entries are not always repeated.

Tests used:
[1] = molecular target: T1, CDK2/Cyclin E1 (Homo sapiens, UniProt P24941); assay: Caliper LabChip EZ Reader mobility shift assay; format: biochemical; conditions: 2.5 nM CDK2/Cyclin E1(14-475), 100 μM ATP, 30 min preincubation; read-out: Caliper Assay (CDK2/CCNE1): IC50
How it was run: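 Mobility-shift assay with CDK2/Cyclin E1(14-475) at 2.5 nM, 100 μM ATP and 1.5 μM 5-FAM-QSPKKG-CONH2 in HEPES pH 7.5 buffer with 0.1% DMSO. Compounds were preincubated with enzyme and ATP for 30 min, the reaction ran 100 min and was stopped with EDTA. IC50 came from a four-parameter fit of normalized conversion ratio.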

[2] = test system: Kuramochi cells RB-WT; assay: IncuCyte Kuramochi cell proliferation assay, RB-WT; format: cell-based; conditions: 72 hours, cell count
How it was run: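 GI50 was derived by curve-fitting DMSO-normalized fold change in nuclear count between 0 and 72 h. Counts came from images of Kuramochi cells carrying mApple-H2B. Compounds were dosed over 10 points at 1/2-log spacing from a 20 µM top concentration.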

[3] = molecular target: T1, CDK2/Cyclin E1; assay: ADP-Glo Luminescent Kinase Assay (CDK2/E1-37C); format: biochemical; conditions: 0.18 nM CDK2/Cyclin E1, 100 μM ATP, Histone H1, 37° C.; read-out: ADPGLO (CDK2/E1-37C): IC50
How it was run: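 IC50 fitted by four-parameter equation from ADP-Glo luminescence converted to % activity. Compounds were preincubated 60 min at 37 °C with enzyme, then kinase reaction ran 90 min at 37 °C with 0.18 nM enzyme, 100 μM ATP, Histone H1 ([…]), pH 7.5 HEPES, Mg2+, DTT.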

[4] = test system: mouse models of polycystic kidney disease; conditions: Bukanov et al., Nature 2006; cited from earlier work

Row | SMILES | pIC50 [1] | pIC50 [3] | pIC50 [2] | arrest of cystic kidney disease [4]
1 | CC1(C)C[C@@H]1C(=O)N1CC2(CN(C(=O)c3cncs3)C[C@H]2COCc2cccc(-c3ccc(C(F)(F)F)cc3)n2)C1 [Compound I-34, ((S)-2-((S)-2,2-dimethylcyclopropane-1-carbonyl)-8-(((6-(4-(trifluoromethyl)phenyl)pyridin-2-yl)methoxy)methyl)-2,6-diazaspiro[3.4]octan-6-yl)(thiazol-5-yl)methanone] | 7.00 to 8.00 | 5.30 to 6.30 | 5.00 to 5.30 | –
2 | CC1(C)C[C@@H]1C(=O)N1CC2(CN(C(=O)c3cncs3)C[C@H]2COCc2cccc(-c3ccccc3)n2)C1 [Compound I-36, ((S)-2-((S)-2,2-dimethylcyclopropanecarbonyl)-8-(((6-phenylpyridin-2-yl)methoxy)methyl)-2,6-diazaspiro[3.4]octan-6-yl)(thiazol-5-yl)methanone] | 6.00 to 7.00 | 5.00 to 5.30 | < 5.00 | –
3 | CC1(C)C[C@@H]1C(=O)N1CC2(CN(C(=O)c3cncs3)C[C@H]2COCc2ccn(C3CCCC3)n2)C1 [Compound I-38, ((S)-8-(((1-cyclopentyl-1H-pyrazol-3-yl)methoxy)methyl)-2-((S)-2,2-dimethylcyclopropane-1-carbonyl)-2,6-diazaspiro[3.4]octan-6-yl)(thiazol-5-yl)methanone] | 6.00 to 7.00 | < 5.00 | < 5.00 | –
4 | CC[C@H](CO)Nc1nc(NCc2ccccc2)c2ncn(C(C)C)c2n1 [roscovitine] | – | – | – | effective arrest of cystic kidney disease

The next lines start with results.

Row | pIC50 [1] | pIC50 [3] | SMILES | pIC50 [2] | arrest of cystic kidney disease [4]
5 | 6.00 to 7.00 | < 5.00 | CC1(C)C[C@@H]1C(=O)N1CC2(CN(C(=O)c3cncs3)C[C@H]2COCc2cccc(C3CCOCC3)c2)C1 [Compound I-39, ((S)-2-((S)-2,2-dimethylcyclopropane-1-carbonyl)-8-(((3-(tetrahydro-2H-pyran-4-yl)benzyl)oxy)methyl)-2,6-diazaspiro[3.4]octan-6-yl)(thiazol-5-yl)methanone] | < 5.00 | –
6 | 5.00 to 6.00 and 6.00 to 7.00 | 5.00 to 5.30 | CC1(C)C[C@@H]1C(=O)N1CC2(CN(C(=O)c3cncs3)C[C@H]2COCc2cccc(C3CCOCC3)n2)C1 [Compound I-49, (2-((S)-2,2-dimethylcyclopropane-1-carbonyl)-8-(((6-(tetrahydro-2H-pyran-4-yl)pyridin-2-yl)methoxy)methyl)-2,6-diazaspiro[3.4]octan-6-yl)(thiazol-5-yl)methanone] | < 5.00 | –
7 | < 5.00 | < 5.00 | O=C(O)C(Cc1cccc(-c2ccc(C(F)(F)F)cc2)n1)CC1CN(C(=O)c2cnn(Cc3ccc(C(F)(F)F)cc3)c2)CC12CN(C(=O)C1(C(F)(F)F)CC1)C2 (stereo not shown) [Compound I-50, 2-((6-(1-(4-(trifluoromethyl)benzyl)-1H-pyrazole-4-carbonyl)-2-(1-(trifluoromethyl)cyclopropane-1-carbonyl)-2,6-diazaspiro[3.4]octan-8-yl)methyl)-3-(6-(4-(trifluoromethyl)phenyl)pyridin-2-yl)propanoic acid] | < 5.00 | –
